Measurements as given in patent publication US20220040280A1, “INHIBITORS AND USES THEREOF” (UNIVERSITY OF CANBERRA, priority 2016, published 2022).

Assays:
LSD1s111p [1] = experiment: Confocal microscopy of LSD1s111p in xenografted MDA-MB-231 cells; assay type: in vivo, mouse; settings: xenograft MDA-MB-231 cells; Abraxane 60 mg/kg, Docetaxel 10 mg/kg, Phenelzine 41 mg/kg; relative to vehicle control
Text: (§1) Cells were probed with either rabbit antibodies to LSD1s111p (Merck ABE1462), EGFR (AB2430), MET (ab51067), PD-L1 (sc-50298), goat antibodies to PD-L1 (sc-19091), SC-14033), (sc-19096), mouse antibodies to Cytokeratin (Miltenyi 130-090-866), CSV (Abnova H00007431-M08), vimentin (SC-6260) followed by visualisation with secondary anti mouse Alexa-Fluor 568 (A10037), secondary anti rabbit Alexa-Fluor 488 (A21206) or secondary anti goat Alexa-Fluor 633 (A21082).
The nuclear intensity of LSD1s111p was measured using confocal laser scanning microscopy in xenografted MDA-MB-231 cells treated with vehicle alone or Abraxene (60 mg/kg) or Docetaxel (10 mg/kg). Cells were fixed with 3.7% formaldehyde and permeabilized with 2% Triton-X-100, and then probed with a primary rabbit antibody to LSD1s111p, followed by the corresponding secondary antibody conjugated to Alexa-Fluor 488. Total nuclear fluorescence (TNFI) values for xenografted MDA-MB-231 cells were calculated. Data shown represents the mean±SE for at least 20 individual cells.

MET = experiment: Confocal microscopy of MET in xenografted MDA-MB-231 cells; assay type: in vivo, mouse; settings: xenograft MDA-MB-231 cells; Abraxane 60 mg/kg, Docetaxel 10 mg/kg, FIG. 11
Text: as §1

SNAIL [2] = experiment: Confocal microscopy of SNAIL in xenografted MDA-MB-231 cells; assay type: in vivo, mouse; settings: xenograft MDA-MB-231 cells; Abraxane 60 mg/kg, Docetaxel 10 mg/kg; relative to vehicle
Text: as §1

EGFR = experiment: Confocal microscopy of EGFR in xenografted MDA-MB-231 cells; assay type: in vivo, mouse; settings: xenograft MDA-MB-231 cells; Abraxane 60 mg/kg, Docetaxel 10 mg/kg, Phenelzine 41 mg/kg; relative to vehicle control
Text: as §1

PD-L1 [3] = settings: CTCs from metastatic breast cancer patients, in all but one patient, FIG. 17
Description: (§2) Cells were permeabilised by incubating with 2% Triton X-100 for 20 min. Cells were probed with either rabbit antibodies to LSD1s111p (Merck ABE1462), EGFR (AB2430), MET (ab51067), PD-L1 (sc-50298), goat antibodies to PD-L1 (sc-19091), SC-14033), (sc-19096), mouse antibodies to Cytokeratin (Miltenyi 130-090-866), CSV (Abnova H00007431-M08), vimentin (SC-6260) followed by visualisation with secondary anti mouse Alexa-Fluor 568 (A10037), secondary anti rabbit Alexa-Fluor 488 (A21206) or secondary anti goat Alexa-Fluor 633 (A21082). Cover slips were mounted on glass microscope slides with ProLong Diamond Antifade© reagent (Life Technologies). Antibody staining was localised by confocal laser scanning microscopy. Single 0.5 μm sections were obtained using a Nikon x 60 oil immersion lens on the Nikon C1 plus confocal system running NIS-Elements AR 3.2 software. […] Digital confocal images were analysed using ImageJ software (ImageJ, NIH, Bethesda, Md., USA) to determine the nuclear/cytoplasmic fluorescence ratio (Fn/c) using the equation: Fn/c=(Fn−Fb)/(Fc−Fb), where Fn is nuclear fluorescence, Fc is cytoplasmic fluorescence, and Fb is background fluorescence or the Total Nuclear Fluorescence (TNFI), the Total Cytoplasmic Fluorescence (TCFI) or Total cell fluorescence. […] Florescence intensity was also measured in a minimum of n=10 cells for each sample set. […]

cytokeratin [4] = experiment: Confocal microscopy of cytokeratin in xenografted MDA-MB-231 cells; assay type: in vivo, mouse; settings: xenograft MDA-MB-231 cells; Abraxane 60 mg/kg, Phenelzine 41 mg/kg, FIG. 9
Text: as §1

SNAIL [5] = settings: CTCs from metastatic breast cancer patients, in all but one patient, FIG. 17
Description: as §2

PD-L1 [6] = experiment: Confocal microscopy of PD-L1 in xenografted MDA-MB-231 cells; assay type: in vivo, mouse; settings: xenograft MDA-MB-231 cells; Abraxane 60 mg/kg, Phenelzine 41 mg/kg, FIG. 9
Text: as §1

LSD1s111p [7] = target: T1, LSD1s111p (Homo sapiens, UniProt O60341); experiment: Confocal microscopy of LSD1s111p in patient circulating tumor cells; assay type: cell-based; settings: CTCs from two metastatic breast cancer patient liquid biopsies, FIG. 16
T1 construct: endogenous in cells; host or cells: circulating tumor cells from metastatic breast cancer patient blood
Text: as §1

PD-L2 = settings: CTCs from two metastatic breast cancer patient liquid biopsies, FIG. 16
Description: as §2

[8] = tested on: cell surface vimentin (CSV); experiment: Confocal microscopy of cell surface vimentin in xenografted MDA-MB-231 cells; assay type: in vivo, mouse; settings: xenograft MDA-MB-231 cells; Abraxane 60 mg/kg, Phenelzine 41 mg/kg, FIG. 10
Text: as §1

cytokeratin [9] = settings: CTCs from two metastatic breast cancer patient liquid biopsies, FIG. 16
Description: as §2

| Structure (SMILES) | LSD1s111p expression, nuclear fluorescent signal (TNFI) (LSD1s111p [1]) | MET nuclear expression (TNFI) (MET) | SNAIL nuclear fluorescent signal (TNFI) (SNAIL [2]) | EGFR nuclear expression (TNFI) (EGFR) | PD-L1 expression (total cell fluorescence) (PD-L1 [3]) | cytokeratin expression (cytokeratin [4]) | SNAIL expression (total cell fluorescence) (SNAIL [5]) | PD-L1 expression in the cytoplasm (TCFI) (PD-L1 [6]) | PD-L1 expression in the nucleus (TNFI) (PD-L1 [6]) | PD-L1 nuclear bias (Fn/c) (PD-L1 [6]) | total PD-L1 expression (PD-L1 [6]) | expression of LSD1s111p (TCFI) (LSD1s111p [7]) | expression of PD-L2 (TCFI) (PD-L2) | cell surface vimentin (CSV) cytoplasmic expression (TCFI) [8] | expression of cytokeratin (TCFI) (cytokeratin [9]) |
| --- | --- | --- | --- | --- | --- | --- | --- | --- | --- | --- | --- | --- | --- | --- | --- |
| CC(=O)O[C@@]12CO[C@@H]1C[C@H](O)[C@@]1(C)C(=O)[C@H](O)C3=C(C)[C@@H](OC(=O)[C@H](O)[C@@H](NC(=O)OC(C)(C)C)c4ccccc4)C[C@@](O)([C@@H](OC(=O)c4ccccc4)[C@H]21)C3(C)C [Docetaxel] | significantly increased | significantly increased | significantly increased | significantly increased | – | – | – | – | – | – | – | – | – | – | – |
| NNCCc1ccccc1 [Phenelzine, (+)-2-phenylethylhydrazine] | inhibitory effect | – | – | inhibitory effect | significant knockdown | abrogated | significant knockdown | significantly abrogated | significantly abrogated | higher | significantly reduced | significant knockdown | significant knockdown | abrogated | significant knockdown |
